Results reported in publication PMC10698726 (Molecular Pharmaceutics, 2023).
“And” between values parts separate entries of the source, which are not always exact repeats. Identical values can stand only once. Like-named read-outs stand apart in the source and are kept apart here.

Legend:
[1] = biological target: T1, OCT3 (Homo sapiens, UniProt O75751); experiment: Inhibition of model substrate uptake in OCT3-overexpressing HEK293 cells; format: cell-based; settings: for IC50: read-out: IC50; for x-fold Stereoselectivity: ratio of the IC50 values of the two enantiomers of the drug
T1 construct: expressed in transfected cells; host or cells: HEK293
T1 sequence (O75751 1-556): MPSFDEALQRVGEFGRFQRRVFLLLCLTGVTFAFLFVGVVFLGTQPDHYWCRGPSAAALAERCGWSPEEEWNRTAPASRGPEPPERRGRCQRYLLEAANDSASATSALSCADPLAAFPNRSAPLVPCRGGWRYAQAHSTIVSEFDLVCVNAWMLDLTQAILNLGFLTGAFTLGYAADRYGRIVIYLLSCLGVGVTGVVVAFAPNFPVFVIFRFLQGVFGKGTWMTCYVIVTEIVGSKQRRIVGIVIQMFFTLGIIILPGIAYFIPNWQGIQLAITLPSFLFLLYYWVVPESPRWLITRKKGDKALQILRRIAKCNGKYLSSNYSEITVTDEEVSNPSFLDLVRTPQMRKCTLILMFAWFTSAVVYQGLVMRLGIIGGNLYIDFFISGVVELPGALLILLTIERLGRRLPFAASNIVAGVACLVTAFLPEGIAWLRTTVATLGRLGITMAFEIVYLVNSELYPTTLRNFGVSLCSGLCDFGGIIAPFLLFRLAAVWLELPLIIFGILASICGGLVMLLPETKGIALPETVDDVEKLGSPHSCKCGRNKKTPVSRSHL
Procedure: (§1) All experiments were carried out in transporter-overexpressing HEK293 cells. OCT1-, OCT2-, NET-, DAT-, and SERT-overexpressing cells as well as the empty-vector transfected control cell line were generated as described earlier,[26]−[28] whereas the OCT3-overexpressing HEK293 cells were generous gift of from Drs. Koepsell and Gorbulev (University of Würzburg, Germany). All cells were cultivated in Dulbecco’s modified Eagle’s medium (DMEM) supplemented with 10% (v/v) FCS, penicillin (100 U/mL), and streptomycin (100 μg/mL) and kept in culture for no longer than 30 passages.
(§2) As for the transport experiments, 300,000 HEK293 cells were plated in poly-D-lysine-coated 24-well plates 2 days ahead of the experiment. On every plate, two wells of empty vector (EV)-transfected cells were used as a control to account for the passive influx of the model substrate, and two wells of transporter-overexpressing cells were used to determine the noninhibited uptake of the model substrate. Cells were initially washed once with 37 °C HBSS+ and then incubated with 2 μM model substrate (0.2 μM for MPP^+ uptake by MATs) with and without 20 μM inhibitor for 5 min. For concentration-dependent inhibition experiments, the cells were incubated with increasing inhibitor concentrations. The incubation was terminated by aspiration of the buffer before cells were washed twice with ice-cold HBSS+ and lysed in 80% acetonitrile. Cell lysates were transferred into a black 96-well plate for the fluorescence measurement of ASP^+ or used for sample preparation for LC–MS/MS analysis. […] Fluorescence quantification was performed in technical duplicates.
(§3) Transporter-mediated net uptake was calculated as the difference between uptake in transporter-overexpressing cells and that in the empty-vector-transfected control. […] Vmax is the maximum transport velocity, while Km is defined as the substance concentration that is required to reach half of vmax. The ratio of vmax over Km is termed intrinsic clearance Clint. For inhibition experiments, the transport activity was calculated by using the following equation [drawing 1]
(§4) SubstrateEV refers to the passive uptake of model substrates into the control cells and substratenoninhibited is the uptake in transporter-overexpressing cells without the presence of any inhibitor. The percent inhibition values are then calculated as described in the following [drawing 2]
(§5) For concentration inhibition experiments, the transporter activity was plotted against the log10 of inhibitor concentrations, and the data were fitted by the following equation to determine IC50 values [drawing 3]
(§6) Y refers to the transporter activity, whereas Ymax is the maximum and Ymin is the minimal transporter activity. X is the log10 of inhibitor concentrations, IC50 is the half-maximal inhibitory concentration, and hill slope is the slope factor.

[2] = biological target: T2, OCT1 (Homo sapiens, UniProt O15245); experiment: Inhibition of model substrate uptake in OCT1-overexpressing HEK293 cells; format: cell-based; parameters: expressed in transfected cells; host or cells: HEK293
T2 sequence (O15245 1-554): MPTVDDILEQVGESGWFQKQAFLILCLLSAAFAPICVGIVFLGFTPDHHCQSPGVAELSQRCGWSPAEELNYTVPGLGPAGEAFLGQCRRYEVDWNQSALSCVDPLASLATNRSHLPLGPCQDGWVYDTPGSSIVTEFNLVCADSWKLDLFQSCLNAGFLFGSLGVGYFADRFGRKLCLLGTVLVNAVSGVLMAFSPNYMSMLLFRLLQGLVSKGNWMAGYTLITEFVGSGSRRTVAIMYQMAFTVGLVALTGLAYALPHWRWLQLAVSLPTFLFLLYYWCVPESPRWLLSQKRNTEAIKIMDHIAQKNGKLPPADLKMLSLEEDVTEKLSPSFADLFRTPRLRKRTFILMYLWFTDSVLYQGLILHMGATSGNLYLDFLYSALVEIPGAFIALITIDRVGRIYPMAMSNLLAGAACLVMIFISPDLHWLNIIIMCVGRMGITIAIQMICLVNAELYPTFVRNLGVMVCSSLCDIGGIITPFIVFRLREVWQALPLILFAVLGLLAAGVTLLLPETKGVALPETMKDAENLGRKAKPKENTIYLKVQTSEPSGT
Procedure: Koepsell and Gorbulev (University of Würzburg, Germany).
Fluorescence quantification was performed in technical duplicates.

[3] = biological target: T3, OCT2 (Homo sapiens, UniProt O15244); experiment: Inhibition of model substrate uptake in OCT2-overexpressing HEK293 cells; settings: for IC50: IC50, OCT2, Table S5, 2 μM ASP+ as model substrate, 5 min; for selectivity ratio at 5 min: OCT2-overexpressing HEK293 cells
T3 sequence (O15244 1-555): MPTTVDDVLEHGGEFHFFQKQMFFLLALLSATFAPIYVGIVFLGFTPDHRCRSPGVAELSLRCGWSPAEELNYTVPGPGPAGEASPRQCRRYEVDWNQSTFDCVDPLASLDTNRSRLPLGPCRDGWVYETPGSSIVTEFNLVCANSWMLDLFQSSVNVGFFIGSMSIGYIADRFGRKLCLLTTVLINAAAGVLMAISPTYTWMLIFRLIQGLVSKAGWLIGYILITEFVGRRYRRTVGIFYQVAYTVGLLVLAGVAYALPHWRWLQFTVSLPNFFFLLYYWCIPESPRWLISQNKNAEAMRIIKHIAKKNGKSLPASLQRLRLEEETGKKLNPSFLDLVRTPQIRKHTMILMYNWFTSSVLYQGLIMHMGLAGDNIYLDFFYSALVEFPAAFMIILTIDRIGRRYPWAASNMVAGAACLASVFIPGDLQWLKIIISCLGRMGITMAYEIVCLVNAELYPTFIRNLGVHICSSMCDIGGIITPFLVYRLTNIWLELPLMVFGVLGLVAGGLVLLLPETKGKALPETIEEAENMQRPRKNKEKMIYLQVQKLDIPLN
Procedure: as §1, §2, §3, §4, §5, §6

[4] = OCT3, 20 μM inhibitor, 2 μM ASP+, 5 min
[5] = HEK293, 5 min, read-out: (S)-Zolmitriptan inhibition [%], OCT3, 20 μM inhibitor, 2 μM (S)-zolmitriptan, 5 min
[6] = HEK293, 5 min, read-out: (S,S)-Ethambutol inhibition [%], OCT3, 20 μM inhibitor, 2 μM (S,S)-ethambutol, 5 min
[7] = HEK293, OCT3, 20 μM inhibitor, 2 μM ASP+, 5 min, read-out: ASP+ inhibition [%]
[8] = HEK293, 5 min, read-out: (S)-Zolmitriptan inhibition [%]
[9] = HEK293, 5 min, read-out: (S,S)-Ethambutol inhibition [%]
[10] = OCT3, Table S5, 2 μM ASP+ or ethambutol as model substrate, 5 min
[11] = OCT3, model substrate 2 μM (S)-zolmitriptan, 5 min
[12] = OCT3, model substrate 2 μM (S,S)-ethambutol, 5 min
[13] = OCT3, model substrate 2 μM N-ethyllidocaine, 5 min
[14] = OCT3, 20 μM inhibitor, 2 μM (S,S)-ethambutol, 5 min
[15] = OCT3, 20 μM inhibitor, 2 μM (S)-zolmitriptan, 5 min
[16] = OCT2, ratio of the IC50 values of the two enantiomers of the drug

Compound: C1CCN2C[C@@H]3C[C@@H](CN4CCCC[C@@H]34)[C@H]2C1 [(-)-Sparteine]
- (S)-Zolmitriptan inhibition [%] [1]: 11.0
- (S,S)-Ethambutol inhibition [%] [1]: 20.7
- ASP+ inhibition [%] [1, 4]: 0.4%

Compound: CC(C)NC[C@@H](O)COc1ccc(CC(N)=O)cc1 [(R)-Atenolol]
- inhibition at 20 µM [1, 5]: 5.5%
- inhibition at 20 µM [1, 6]: 0.9%
- inhibition at 20 µM [1, 7]: 3.9%

Compound: CCN[C@H](C)Cc1cccc(C(F)(F)F)c1 [(R)-Fenfluramine]
- ASP+ inhibition [%] ([2]; OCT1, 20 μM inhibitor, 2 μM ASP+, 5 min, mean of three experiments): 38.4%
- inhibition at 20 µM [1, 8]: 55.9%
- inhibition at 20 µM [1, 9]: 40.7%
- inhibition at 20 µM [1, 7]: 7.6%

Compound: CCCNC[C@@H](O)COc1ccccc1C(=O)CCc1ccccc1 [(R)-Propafenone]
- inhibition at 20 µM [1, 5]: 53.6%
- inhibition at 20 µM [1, 7]: 17.3%

Compound: Cc1ccc(O)c([C@H](CCN(C(C)C)C(C)C)c2ccccc2)c1 [(R)-Tolterodine]
- IC50 [3]: 200 nM
- inhibition at 20 µM [1, 8]: 97.6%
- IC50 [1, 10]: 2300 nM
- ASP+ inhibition [%] [1, 4]: 94%
- IC50 [1, 11]: 570 nM
- IC50 [1, 12]: 390 nM
- IC50 [1, 13]: 230 nM
- IC50 [1]: 170 nM

Compound: CNCC[C@@H](Oc1ccccc1C)c1ccccc1 [(R)-Tomoxetine]
- IC50 [3]: 6300 nM
- inhibition at 20 µM [1, 5]: 33.2%
- (S,S)-Ethambutol inhibition [%] [1, 14]: 39.0%
- ASP+ inhibition [%] [1, 4]: 1.1%

Compound: COc1ccc(CCN(C)CCC[C@](C#N)(c2ccc(OC)c(OC)c2)C(C)C)cc1OC [(R)-Verapamil]
- inhibition at 20 µM [1, 8]: 42.1%
- inhibition at 20 µM [1, 9]: 48.9%
- inhibition at 20 µM [1, 7]: 8.2%

Compound: CC(C)NC[C@H](O)COc1ccc(CC(N)=O)cc1 [(S)-Atenolol]
- inhibition at 20 µM [1, 5]: -3.8%
- inhibition at 20 µM [1, 6]: 2.9%
- inhibition at 20 µM [1, 7]: 0.9%

Compound: CCCNC[C@H](O)COc1ccccc1C(=O)CCc1ccccc1 [(S)-Propafenone]
- (S)-Zolmitriptan inhibition [%] [1, 15]: 62.0%
- (S,S)-Ethambutol inhibition [%] [1, 14]: 76.4%
- ASP+ inhibition [%] [1, 4]: 23.8%

Compound: Cc1ccc(O)c([C@@H](CCN(C(C)C)C(C)C)c2ccccc2)c1 [(S)-Tolterodine]
- IC50 [3]: 130 nM
- (S)-Zolmitriptan inhibition [%] [1]: 82.9
- (S,S)-Ethambutol inhibition [%] [1]: 89.8
- IC50 [1, 10]: 25300 nM
- ASP+ inhibition [%] [1, 4]: 53.5% and 54%
- IC50 [1, 11]: 7000 nM
- IC50 [1, 12]: 6370 nM
- IC50 [1, 13]: 3100 nM
- IC50 ([1]; OCT3, model substrate 2 μM famotidine, 5 min): 2310 nM

Compound: CNCC[C@H](Oc1ccccc1C)c1ccccc1 [(S)-Tomoxetine]
- IC50 [3]: 17100 nM
- (S)-Zolmitriptan inhibition [%] [1, 15]: 21.1%
- (S,S)-Ethambutol inhibition [%] [1, 14]: -5.7%
- ASP+ inhibition [%] [1, 4]: -8.3%

Compound: COc1ccc(CCN(C)CCC[C@@](C#N)(c2ccc(OC)c(OC)c2)C(C)C)cc1OC [(S)-Verapamil]
- inhibition at 20 µM [1, 8]: 57.6%
- inhibition at 20 µM [1, 9]: 70.7%
- inhibition at 20 µM [1, 7]: 20.8%

Compound: CCN1CCCC1CNC(=O)c1cc(S(=O)(=O)CC)c(N)cc1OC (stereo not drawn) [Amisulpride]
- difference between enantiomers in the inhibition of OCT2 (in words) ([3]; ASP+ screening, 20 μM inhibitor): noticeable differences
- x-fold Stereoselectivity [3, 16]: 3.2 fold

Compound: C#CCN(C)C(C)Cc1ccccc1 (stereo not drawn) [Deprenyl]
- x-fold Stereoselectivity ([3]; human, pH 7.4): 1.4 fold

Compound: CN(C)CCOC(C)(c1ccccc1)c1ccccn1 (stereo not drawn) [Doxylamine]
- selectivity ratio at 5 min ([2]; human, OCT1-overexpressing HEK293 cells, pH 7.4, OCT1, ratio of the IC50 values of the two enantiomers of the drug, read-out: x-fold Stereoselectivity): 1.4

Compound: OCC(O)CN1CCN(c2ccccc2)CC1 (stereo not drawn) [Dropropizine]
- x-fold Stereoselectivity [3, 16]: 1.4 fold

Compound: O=C1c2cccc3c2[C@H](CCC3)CN1[C@@H]1CN2CCC1CC2 [Palonosetron]
- stereoselectivity in the inhibition of OCT2 (in words) ([3]; ASP+ uptake, reduced inhibitor concentrations (Figure S4)): relevant stereoselectivity
- selectivity ratio at 5 min ([3]; human, pH 7.4): 3.2
- x-fold Stereoselectivity ([1]; OCT3): 2.5 fold

Compound: CC(C)(C)NC[C@H](O)COc1nsnc1N1CCOCC1 [Timolol]
- selectivity ratio at 5 min ([3]; human, pH 7.4): 2

Compound: CN(C)CCc1c[nH]c2ccc(C[C@H]3COC(=O)N3)cc12 [Zolmitriptan]
- x-fold Stereoselectivity ([1]; OCT3): 25 fold
- stereoselective inhibition of OCT3 (in words) ([1]; ethambutol and zolmitriptan as substrates, 20 μM inhibitor): stereoselective inhibition
